From US6552027B2, “Quinazolines for treating brain tumor” (Parker Hughes Institute, priority 1998, dated 2003)
Values joined by “and” are separate entries in the source; they are usually repeats but may differ in a detail not shown here. Identical values can stand only once. Like-named read-outs stand apart in the source and are kept apart here.

Assays:
U373 glioma cells = assay: Morphology by anti-α-tubulin / TOTO-3 immunofluorescence; type: cell-based, human; details: 25 μg/ml, 24 hours
Description: Cells were fixed in paraformaldehyde, immunostained with monoclonal antibody to EGF-R (green fluorescence) and counterstained with TOTO-3 (blue fluorescence) The immunostained cells were analyzed with a laser scanning confocal microscope. Blue fluorescence represents nuclei.
Immunofluorescence was used to (i) examine the surface expression of EGF-receptor (EGF-R) on brain tumor cells, (ii) evaluate the uptake of EGF-P154 by brain tumor cells and (iii) examine the morphologic features of EGF-P154 treated brain tumor cells.
At the end of the incubation, cells were washed twice with PBS and fixed in 2% paraformaldehyde. The cells were permeabilized and non-specific binding sites were blocked with 2.5% BSA in PBS containing 0.1% Triton X-100 for 30 minutes. […] After rinsing with PBS, cells were incubated for 1 hour with a mixture of a goat anti-mouse IgG antibody conjugated to FITC (Amersham Corp., Arlington Heights, Ill.) and donkey anti-rabbit IgG conjugated to Texas Red (Amersham Corp.) at a dilution of 1:40 in PBS. Similarly, tubulin expression was examined by immunofluorescence using a monoclonal antibody against α-tubulin (Sigma Chemical Co, St. Louis, Mo.) at a dilution of 1:1000 and an anti-mouse IgG conjugated to FITC. Cells were washed in PBS and counterstained with toto-3 (Molecular Probes Inc., Eugene, Oreg.) for 10 minutes at a dilution of 1:1000. […]

[1] = tested on: U373 human glioblastoma cell line; assay: MTT cytotoxicity assay, U373 glioblastoma cells; details: U373
Description: (§1) The cytotoxicity assay of various compounds against human brain tumor cell lines was performed using the MTT (3-[4,5-dimethylthiazol-2-yl]-2,5-diphenyl tetrazolium bromide) assay (Boehringer Mannheim Corp., Indianapolis, Ind.). Briefly, exponentially growing brain tumor cells were seeded into a 96-well plate at a density of 2.5×10^4 cells/well and incubated for 36 hours at 37° C. prior to drug exposure. […] Triplicate wells were used for each treatment.
Human glioblastoma cell line U373 was obtained from American. Type Culture Collection (Rockville, Md.) and maintained as a continuous cell line in Dulbecco's modified Eagles's medium supplemented with 10% fetal bovine serum and antibiotics. The B-lineage acute lymphoblastic leukemia cell line Nalm-6 was used as a negative control.
(§2) The cells were incubated with the various compounds for 24-36 hours at 37° C. in a humidified 5% CO2 atmosphere. To each well, 10 μl of MTT (0.5 mg/ml final concentration) was added and the plates were incubated at 37° C. for 4 hours to allow MTT to form formazan crystals by reacting with metabolically active cells. The formazan crystals were solubilized overnight at 37° C. in a solution containing 10% SDS in 0.01 M HCl. The absorbence of each well was measured in a microplate reader (Labsystems) at 540 nm and a reference wavelength of 690 nm. To translate the OD540 values into the number of live cells in each well, the OD540 values were compared to those on standard OD540—versus—cell number curves generated for each cell line. The percent survival was calculated using the formula: [formula]
(§3) The IC50 values were calculated by non linear regression analysis.

[2] = tested on: U373 human glioblastoma cells; assay: SCID mouse xenograft model of human glioblastoma; details: for in vivo anti-tumor activity / tumor-free survival (in words): daily i.p. doses for 10 days starting the day after inoculation
Description: The right hind legs of the CB. 17 SCID mice were inoculated subcutaneously (s.c.) with 0.5×10^6 U373 human glioblastoma cells in 0.2 mL PBS. […] Daily treatments with PBS, unconjugated EGF (1 mg/kg/dose), and unconjugated WHI-P154 (1 mg/kg/dose) were used as controls. Mice were monitored daily for health status and tumor growth, and were sacrificed if they became moribund developed tumors which impeded their ability to attain food or water, at the end of the 3-month observation period. Tumors were measured using Vernier calipers twice weekly, and the tumor volumes were calculated according to the following formula (Friedman, S. H., mDolan, M. E., Pegg, A. E., Marcelli, S., Keir, S., Catino, J. J., Binger, D. D., Schold, S. C., Jr., 1995, Cancer Res., 55:2853-2857): [formula]
For histopathologic studies, tissues were fixed in 10% neutral buffered formalin, dehydrated, and embedded in paraffin by routine methods. Glass slides with affixed 6 micron tissue sections were prepared and stained with hematoxylin/eosin. Primary endpoints of interest were tumor growth and tumor-free survival outcome. Estimation of life table outcome and comparisons of outcome between groups were done, as previously reported (Waurzyniak, et al., 1997, Clinical Cancer Research 3:881-890; Anderson, et al., 1995, Cancer Res. 55:1321-1327; Uckun, et al., 1997, J. Clin. Oncol. 15:2214-2221).

U373 glioblastoma cells = assay: Uptake and internalization by immunofluorescence and confocal microscopy; type: cell-based, human; details: 5 μg/ml
Description: At the end of the incubation, cells were washed twice with PBS and fixed in 2% paraformaldehyde. The cells were permeabilized and non-specific binding sites were blocked with 2.5% BSA in PBS containing 0.1% Triton X-100 for 30 minutes. […] After rinsing with PBS, cells were incubated for 1 hour with a mixture of a goat anti-mouse IgG antibody conjugated to FITC (Amersham Corp., Arlington Heights, Ill.) and donkey anti-rabbit IgG conjugated to Texas Red (Amersham Corp.) at a dilution of 1:40 in PBS. Similarly, tubulin expression was examined by immunofluorescence using a monoclonal antibody against α-tubulin (Sigma Chemical Co, St. Louis, Mo.) at a dilution of 1:1000 and an anti-mouse IgG conjugated to FITC. Cells were washed in PBS and counterstained with toto-3 (Molecular Probes Inc., Eugene, Oreg.) for 10 minutes at a dilution of 1:1000. Cells were washed again with PBS and the coverslips were mounted with Vectashield (Vector Labs, Burlingame, Calif.) and viewed with a confocal microscope (Bio-Rad MRC 1024) mounted in a Nikon Labhophot upright microscope.

glioblastoma cells = assay: In situ apoptosis assay (TdT-mediated dUTP nick-end labeling); type: cell-based, human; details: 36 hours after treatment; FIGS. 6D and 6E
Description: After a 36 hour incubation at 37° C. in a humidified 5% CO2 incubator, the supernatants were carefully aspirated and the cells were treated for 1-2 minutes with 0.1% trypsin. The detached cells were collected into a 15 ml centrifuge tube, washed with medium and pelleted by centrifugation at 1000 rpm for 5 minutes. Cells were resuspended in 50 μl of PBS, transferred to poly-L-lysine coated coverslips and allowed to attach for 15 minutes. The cells were washed once with PBS and incubated with equilibration buffer for 10 minutes at room temperature.
After removal of the equilibration buffer, cells were incubated for 1 hour at 37° C. with the reaction mixture containing terminal deoxynucleotidyl transferase (TdT) and […] for labeling of exposed 3′-hydroxyl ends of fragmented nuclear DNA. The cells were washed with PBS and incubated with anti-digoxigenin antibody conjugated to FITC for 1 hour at room temperature to detect the incorporated dUTP. After washing the cells with PBS, the coverslips were mounted onto slides with Vectashield containing propidium iodide (Vector Labs, Burlingame, Calif.) and viewed with a confocal laser scanning microscope. […] In control reactions, the TdT enzyme was omitted from the reaction mixture.

NALM-6 leukemia cells = assay: MTT cytotoxicity assay, EGF-R negative leukemia cells (negative control line); type: cell-based
Description: Triplicate wells were used for each treatment.
Human glioblastoma cell line U373 was obtained from American.
The percent survival was calculated using the formula: [formula]

[3] = tested on: U87 human glioblastoma cell line; assay: MTT cytotoxicity assay, U87 glioblastoma cells; type: cell-based
Description: as §1, §2, §3
Apoptosis was also evaluated using the nick-end-labeling assay, as described for Example 3.

U373 cells = assay: EGF-stimulated cell adhesion to poly-L-lysine coated plates; type: cell-based, human; details: stimulation with 250 ng/ml EGF, baseline 33.2±5.2%, P<0.02
Description: To study the effects of quinazoline derivatives on EGF-stimulated cell adhesion, the trypsinized and recovered cells were incubated with varying concentrations ranging from 1 μM to 50 μM of quinazolines for 4 hours at 37° C., then stimulated with 250 ng/ml of EGF and examined for their ability to adhere to poly-L-lysine coated plates.
For the EGF stimulation experiments, the cells were plated in the presence of 250 ng/ml of EGF and allowed to adhere for 1 hour. The non-adherent cells were removed by gently washing the cells with PBS and then the adherent fraction was quantitated as described above for Example 6.

[4] = read-out: IC50 value derived from the composite cell survival curve
[5] = 500 μg/kg/day×10 days i.p., 5 mice

Substance: EGF-P154: WHI-P154 attached to recombinant human EGF by photochemical conjugation with the crosslinking agent Sulfo-SANPAH
- morphologic changes (in words) (U373 glioma cells): complete disruption of microtubules, marked shrinkage, nuclear fragmentation and inability to adhere to the substratum
- IC50 [1, 4]: 0.881 µM
- IC50 ([1]; read-out: mean IC50 value, 3 independent experiments, FIG. 5A): 0.813 µM and 0.811 µM
- IC50 ([1]; read-out: range of IC50 values, 3 independent experiments): 0.588 to 0.95 µM
- average size (mean±SE) of tumors at 40 days ([2]; 500 μg/kg/day dose level, P=0.0003): 37.6±10.7 mm^3
- average size (mean±SE) of tumors at 20 days ([2]; 500 μg/kg/day dose level, P=0.002): 1.0±1.1 mm^3
- delay in reaching the 50 mm^3 tumor size versus control mice (PBS, EGF, or WHI-P154) ([2]; 500 μg/kg/day×10 days): approximately 11 days
- time at which tumors reached a size of 50 mm^3 ([2]; 500 μg/kg/day×10 days i.p.): 47.4 ± 7.1 days
- median tumor-free survival [2, 5]: 33 days
- time within which all mice developed tumors [2, 5]: ≤ 40 days
- mice alive and free of detectable tumors for >58 days ([2]; 1 mg/kg/day, 10 consecutive days): 40%
- enhancement of in vivo anti-tumor activity of WHI-P154 by conjugation to EGF ([2]; 1 mg/kg/day×10 days, 53.2 nmol vs 2.9 nmol of WHI-P154): > 8 fold
- tumor size in the remaining 60% of the mice ([2]; 1 mg/kg/day×10 days, 58-day observation period): ≤ 50 mm^3
- toxicity of the applied dose levels (in words) ([2]; 0.5 and 1 mg/kg/day×10 days i.p.): nontoxic
- in vivo anti-tumor activity / tumor-free survival (in words) [2]: significantly improved tumor-free survival in a dose-dependent fashion
- in vivo anti-tumor activity / tumor-free survival (in words) ([2]; listed as EGF-P54): significant in vivo anti-tumor activity
- time at which internalized complexes were detected in the perinuclear region (U373 glioblastoma cells): ≤ 30 min
- apoptotic nuclei by digoxigenin-dUTP incorporation (in words) (glioblastoma cells): many apoptotic yellow nuclei
- cytotoxicity against EGF-R negative leukemia cells (in words) (NALM-6 leukemia cells): selective cytotoxicity to EGF-R positive glioblastoma cell lines only
- IC50 ([3]; 3 independent experiments, FIG. 5A, read-out: mean IC50 value): 0.62 ± 0.097 µM
- IC50 ([3]; 3 independent experiments, read-out: range of IC50 values): 0.487 to 0.761 µM
- IC50 [3, 4]: 0.601 µM

Substance: EGF: Recombinant human EGF produced in E. coli; used unconjugated as control and as adhesion stimulus
- time at which tumors reached a size of 50 mm^3 ([2]; 1 mg/kg/day×10 days i.p.): 34.0 ± 3.0 days
- median tumor-free survival ([2]; 1 mg/kg/day×10 days i.p., N=5): 23 days
- in vivo anti-tumor activity / tumor-free survival (in words) [2]: inability
- fraction capable of adhering to poly-L-lysine coated plates (U373 cells): 58.48±4.7%
